# What was measured:
# Assay type in all cases: functional
# P388 [1] = test: Cytotoxicity against mouse P388 cells; details: read-out: ED50 (the source's name)
# P388 [2] = test: In vivo cytotoxicity against mouse P388 cells at 12.5 mg/kg relative to control
# P388 [3] = test: In vivo cytotoxicity against mouse P388 cells at 0.78 to 3.1 mg/kg relative to control; details: dose mg/kg 0.78-3.1
# P388 [4] = test: In vivo cytotoxicity against mouse P388 cells at 0.75 to 6 mg/kg relative to control; details: dose mg/kg 0.75-6
smiles,measurement,setting,value
O=C1N[C@H]2[C@H](O)[C@H](O)[C@@H](O)[C@H](O)[C@@H]2c2cc3c(c(O)c21)OCO3 [PANCRATISTATIN],EC50,P388 [1],< 0.01 µg/mL
same,T/C,P388 [2],206%
same,T/C,P388 [3],135%
same,T/C,P388 [4],138%

# From ChEMBL document CHEMBL1151635, “Antineoplastic agents, 105. Zephyranthes grandiflora” (1984)
